Measured values as given in patent US20060263830A1, “Interfacial biomaterials” (priority 2001, published 2006).

Columns and labels:
[1] = Phage panning and ELISA for binding to polyurethane; conditions: phage-displayed peptide, SCX16S library
Experimental: To detect phage that specifically bound to titanium, conventional ELISAs were performed using an anti-M13 phage antibody conjugated to HRP, followed by the addition of chromogenic agent o-phenylenediamine in 10% hydrogen peroxide. Relative binding strengths of the phage were determined by absorbance measurements at 490 nm using a microtiter plate reader.
The SCX16S library (described in Example 1) was screened for binding to polyurethane. Phage were detected, isolated, amplified, and sequenced as described in Example 2.

Human chondrocytes = assay: Cell panning of phage library on chondrocytes; type: cell-based; conditions: phage-displayed peptide
From the text: The SCX16S library (described in Example 1) was screened for binding to chondrocytes. The peptides of the library were of the format SCX16S, including 16 central random amino acids, terminal fixed serines and a single cysteine residue.
Human chondrocytes were obtained from Clonetics, Inc. (San Diego, Calif., United States of America) and grown to confluency on one well of a polystyrene 6-well plate in supplemented F-12 media (Sigma-Aldrich Corp., St. Louis, Mo., United States of America). The entire cell panning procedure was free of detergent. The library was pre-cleared of phage that specifically or non-specifically bind polystyrene by incubating phage in polystyrene wells for two hours prior to addition to the cellular target. In each round, nonspecific binding sites were blocked using 5% dry milk in PBS. Phage were detected, isolated, amplified, and sequenced as described in Example 2. A representative peptide has the sequence SCSVYDHKIGRDSFYSGCS (SEQ ID NO:101). A representative peptide also has a preference for chondrocytes greater than 10 fold over endothelial cells.

[2] = test system: human umbilical vein endothelial cells (HUVECs); assay: HUVEC adhesion to IFBM-coated polystyrene; type: cell-based
Experimental: (§1) First, a 1.0 mg/ml solution of FFPYSHLGVLSSG-PEG (SEQ ID NO:104) was prepared in water. The solution was added to the wells of a 96 well polystyrene culture plate and incubated at 50° C. overnight. The wells were then washed twice with PBS before seeding with 300 μl of either cell type. Human fibroblast and endothelial cells were also seeded on untreated polystyrene (N=3) and peptide (non-pegylated) coated polystyrene (N=3). After overnight incubation at 37° C., the wells were washed 5 times in excess PBS, then fixed in ethanol and stained with eosin Y for cell counting and optical microscopy. Both NHDF and HUVEC cells lose their rounded morphology, spread, and adhere to the untreated control plastic. At higher magnification, marked membrane ruffling is evident.

[3] = test system: adult human dermal fibroblasts (NHDFs); assay: NHDF adhesion to IFBM-coated polystyrene; type: cell-based
Experimental: as §1

[4] = AFM pull-off force measurements on polystyrene; type: binding; conditions: peptide on gold-coated AFM cantilever, PBS buffer, 300 nm/sec
From the text: The adhesion strength and mode of binding are both IFBM and substrate dependent. To characterize and quantify the adhesion forces between IFBMs and synthetic and biological substrates, a state-of-the-art force spectrometer that employs a high precision, piezo driven flexure stage equipped with a capacitive displacement sensor with a position resolution of about 0.5 nm was used. A polystyrene binding peptide from the X6YX6 peptide library was used (a cysteine-terminated peptide containing the polystyrene-binding domain in the forward direction; CGSSLVGLHSYWSSPFF; SEQ ID NO:117). The cysteine-terminated peptides were then linked to a gold-coated atomic force microscope (AFM) cantilever by incubating the cantilever in a solution of the peptide (1 mg/ml). Pull-off force measurements were carried out in PBS buffer solution on a MultiMode AFM (Digital Instruments, now Veeco Instruments, Inc., Woodbury, N.Y., United States of America) by repeatedly engaging a polystyrene surface with the modified cantilever tip at a speed of 300 nm/sec. The mean adhesion force for the peptide was approximately 300 pN.

[5] = test system: human umbilical vein endothelial cells (HUVECs); assay: HUVEC adhesion and spreading on binding-agent-coated polystyrene wells; type: cell-based; conditions: 25 mg/mL coating; light microscopy after 1-hour, 2-hour or overnight culture; vs polystyrene-binding peptide lacking cell-binding domain or uncoated
Experimental: A 25 mg/mL solution was prepared using a binding agent comprising the peptide sequence RGDFLSFVFPASAWGG (SEQ ID NO:72) in a mixture of 90 parts PBS pH 7.4 and 10 parts DMSO. Fifty (50) μl of the binding agent solution was to each of three wells of a 96-well polystyrene microtiter plate for a duration of 1 hour. In another 3 wells, 50 μl of a control peptide 25 mg/ml fluorescein-labeled FLSFVFPASAWGG (SEQ ID NO:1) was added. The wells were washed three times with PBS and non-specific protein binding sites were blocked with sterile-filtered BSA (3% in PBS) for 30 minutes with shaking at 25 rpm. […] Following 4 washes with PBS, human umbilical vein endothelial cells (HUVECs) in supplemented EBM media were seeded onto each well. Cell adhesion and spreading was monitored by light microscopy following a 1-hour, 2-hour, or overnight culture.

[6] = 1.0 mg/ml coating, overnight incubation at 37° C.
[7] = coated vs untreated polystyrene

In the case of “SCYVNGHNSVWVVVFWGVS (Polyurethane-binding peptide 1) [SEQ ID NO:23]”, the “specific binding to polyurethane” value [1] was “specifically binds”.
For “SCSVYDHKIGRDSFYSGCS (Chondrocyte-binding peptide 101) [SEQ ID NO:101]”, the “preference for chondrocytes over endothelial cells” value (Human chondrocytes) was “greater than 10 fold”.
For “FFPYSHLGVLSSG-PEG (PEG conjugated; Polystyrene-binding peptide 104) [SEQ ID NO:104, multi-functional peptide or interfacial biomaterial (IFBM) with PEG cell-repelling segment]”, the “cell morphology and attachment on treated polystyrene” value [2, 6] was “maintain a round morphology and are not tightly adhered to the surface”, the “cell adhesion (cell counting)” value [2, 7] was “substantially lessened” and the “cell number (cell counting)” value [2, 7] was “dramatically reduced”. For the same substance, the “cell morphology and attachment on treated polystyrene” value [3, 6] was “maintain a round morphology and are not tightly adhered to the surface”, the “cell adhesion (cell counting)” value [3, 7] was “substantially lessened” and the “cell number (cell counting)” value [3, 7] was “dramatically reduced”.
With “CGSSLVGLHSYWSSPFF (Polystyrene-binding peptide 117) [SEQ ID NO:117]” the mean adhesion force [4] was “approximately 300 pN”.
In the case of FLSFVFPASAWGGSSGRGD [SEQ ID NO:72], the “cell adhesion and spreading” value [5] was “increased cell adhesion and cell spreading”.
